#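 Tested at 5 concentrations; 48 h exposure; 96-well plates; endpoints linearly interpolated, else capped at highest concentration. TGI denotes the concentration required for complete inhibition of growth.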
# What was measured:
# Test in all cases: growth of human tumour cells (NCI), 48 h
# [1] = system: TK-10 renal
# [2] = system: OVCAR-8 ovarian
# [3] = system: IGROV1 ovarian
# [4] = system: SF-268 CNS
# [5] = system: COLO 205 colon
# [6] = system: DLD-1 colon
# [7] = system: A498 renal
# [8] = system: DMS 114 small cell lung
# [9] = system: UACC-62 melanoma
# [10] = system: M14 melanoma
# [11] = system: HOP-92 NSCLC
# [12] = system: RXF 393 renal
# [13] = system: OVCAR-3 ovarian
# [14] = system: LOX IMVI melanoma
# [15] = system: ACHN renal
# [16] = system: SK-MEL-5 melanoma
# [17] = system: SNB-19 CNS
# [18] = system: SF-539 CNS
# [19] = system: DMS 273 small cell lung
# [20] = system: SK-OV-3 ovarian
# [21] = system: OVCAR-5 ovarian
# [22] = system: CAKI-1 renal
# [23] = system: A549 NSCLC
# [24] = system: SK-MEL-28 melanoma
# [25] = system: HCT-15 colon
# [26] = system: LXFL 529 NSCLC
# [27] = system: NCI-H23 lung
# [28] = system: UO-31 renal
# [29] = system: SF-295 CNS
# [30] = system: HCC-2998 colon
# [31] = system: EKVX NSCLC
# [32] = system: SN12C renal
# [33] = system: OVCAR-4 ovarian
# [34] = system: NCI-H460 lung
# [35] = system: NCI-H226 lung
# [36] = system: HT29 colon
# [37] = system: SW-620 colon
# [38] = system: SNB-75 CNS
# [39] = system: UACC-257 melanoma
# [40] = system: HCT-116 colon
# [41] = system: XF 498 CNS
# [42] = system: CCRF-CEM leukemia
# [43] = system: U251 CNS
# [44] = system: SK-MEL-2 melanoma
# [45] = system: KM20L2 colon
# [46] = system: KM12 colon
# [47] = system: SNB-78 CNS
# [48] = system: HOP-18 NSCLC
# [49] = system: 786-0 renal
# [50] = system: NCI-H522 lung
# [51] = system: K-562 leukemia
# [52] = system: MOLT-4 leukemia
# [53] = system: HL-60(TB) leukemia
# [54] = system: M19-MEL melanoma
# [55] = system: MALME-3M melanoma
# [56] = system: RPMI-8226 leukemia
# [57] = system: HOP-62 NSCLC
smiles,measurement,setting,value
O=C1NC(=S)S/C1=C/c1ccco1,TGI,[1],> 100 µM
same,TGI,[2],> 100 µM
same,TGI,[3],> 100 µM
same,TGI,[4],> 100 µM
same,TGI,[5],> 100 µM
same,TGI,[6],> 100 µM
same,TGI,[7],64.3 µM
same,TGI,[8],> 100 µM
same,TGI,[9],> 100 µM
same,TGI,[10],> 100 µM
same,TGI,[11],> 100 µM
same,TGI,[12],> 100 µM
same,TGI,[13],> 100 µM
same,TGI,[14],> 100 µM
same,TGI,[15],> 100 µM
same,TGI,[16],> 100 µM
same,TGI,[17],> 100 µM
same,TGI,[18],> 100 µM
same,TGI,[19],> 100 µM
same,TGI,[20],> 100 µM
same,TGI,[21],> 100 µM
same,TGI,[22],> 100 µM
same,TGI,[23],> 100 µM
same,TGI,[24],> 100 µM
same,TGI,[25],> 100 µM
same,TGI,[26],> 100 µM
same,TGI,[27],> 100 µM
same,TGI,[28],> 100 µM
same,TGI,[29],> 100 µM
same,TGI,[30],> 100 µM
same,TGI,[31],> 100 µM
same,TGI,[32],> 100 µM
same,TGI,[33],> 100 µM
same,TGI,[34],> 100 µM
same,TGI,[35],> 100 µM
same,TGI,[36],> 100 µM
same,TGI,[37],> 100 µM
same,TGI,[38],> 100 µM
same,TGI,[39],> 100 µM
same,TGI,[40],> 100 µM
COc1cc(/C=C\c2ccc(O)cc2)cc(OC)c1OC,TGI,[1],> 100 µM
same,TGI,[2],> 100 µM
same,TGI,[3],> 100 µM
same,TGI,[4],4.63 µM
same,TGI,[41],> 100 µM
same,TGI,[5],13.9 µM
same,TGI,[6],> 100 µM
same,TGI,[7],> 100 µM
same,TGI,[42],> 100 µM
same,TGI,[43],> 23.6 µM
same,TGI,[9],> 29.1 µM
same,TGI,[44],> 100 µM
same,TGI,[10],> 100 µM
same,TGI,[12],> 25.1 µM
same,TGI,[13],6.24 µM
same,TGI,[14],> 100 µM
same,TGI,[45],> 100 µM
same,TGI,[15],> 100 µM
same,TGI,[16],18.6 µM
same,TGI,[17],> 100 µM
same,TGI,[18],> 100 µM
same,TGI,[46],> 100 µM
same,TGI,[19],2.9 µM
same,TGI,[20],61.6 µM
same,TGI,[21],> 100 µM
same,TGI,[22],> 100 µM
same,TGI,[23],> 100 µM
same,TGI,[47],8.3 µM
same,TGI,[24],9.61 µM
same,TGI,[48],> 100 µM
same,TGI,[25],> 100 µM
same,TGI,[26],> 100 µM
same,TGI,[28],> 36.6 µM
same,TGI,[49],> 100 µM
same,TGI,[50],> 22.4 µM
same,TGI,[51],> 100 µM
same,TGI,[29],5.48 µM
same,TGI,[30],> 79 µM
same,TGI,[52],> 100 µM
same,TGI,[31],> 100 µM
same,TGI,[32],> 53.6 µM
same,TGI,[33],> 100 µM
same,TGI,[34],> 30 µM
same,TGI,[35],> 100 µM
same,TGI,[53],> 29.3 µM
same,TGI,[54],> 100 µM
same,TGI,[36],> 100 µM
same,TGI,[55],> 40.9 µM
same,TGI,[37],> 100 µM
same,TGI,[56],35.3 µM
same,TGI,[57],> 100 µM
same,TGI,[38],> 30 µM
same,TGI,[39],> 100 µM
same,TGI,[40],> 59.8 µM
